From US9108923B2, “Compounds, compositions, and methods for cancer therapy” (The Broad Institute, Inc., priority 2012, dated 2015)
Where two headings read alike, the source gives them in different places.

Tests used:
HeLa = test: ATP Assay (CellTiter-Glo), cellular ATP levels as surrogate for cell viability; type: cell-based, human
Method: (§1) ATP Assay. […] At that time, media was removed and replaced with a solution of CellTiter-Glo reagent (Promega) in PBS. After ten minutes, luminescence was read using an EnVision multilabel plate reader (Perkin-Elmer) and signal intensity was calculated relative to in-plate DMSO control wells.
(§2) We next sought to determine the performance of the synthetic analogs relative to PL in cells. […] As a second assay, effects of compound treatments on ATP levels, a surrogate for cell viability, were measured after 48 hours.
(§3) Assays were performed in 384-well plates on two human cancer cell lines, H1703 (lung) and HeLa (cervix).

H1703 = test: as above; type: cell-based, human
Method: as §1, §2, §3

HeLa cells [1] = test: Immunofluorescence Detection of Glutathionylated Proteins; details: for elevation of protein glutathionylation (in words): HeLa cells, monoclonal antibody recognizing glutathione
[2] = test system: H1703 (lung) and HeLa (cervix); test: ROS Assay (CM-H2DCF-DA, automated microscopy); type: cell-based, human; details: 90 minutes after compound treatment
[3] = stability at room temperature (remark with characterisation data); type: physicochemical
[4] = test system: H1703 (lung) and HeLa (cervix); test: ATP assay / cellular toxicity, covering both cell lines; type: cell-based, human; details: two cell lines tested, ATP levels after 48 h
[5] = test system: EJ bladder carcinoma line; test: Glutathione Assay (GSH/GSSG-Glo), total cellular glutathione; details: EJ cells, 3 h treatment
BJ vs. BJ-ELR = test: Assessment of Cancer/Normal Selective Toxicity (crystal violet); type: cell-based, human; details: crystal violet staining, 48 h
HeLa cells [6] = test: Glutathione Assay (GSH/GSSG-Glo), total cellular glutathione; type: cell-based, human; details: 6 h treatment
[7] = Homo sapiens, HeLa; Table 1; cellular ATP levels, 48 h; read-out: EC50 HeLa
[8] = Homo sapiens, NCI-H1703; Table 1; cellular ATP levels, 48 h; read-out: EC50 H1703
[9] = Table 2; cellular ATP levels, 48 h; read-out: EC50 HeLa
[10] = Table 2; cellular ATP levels, 48 h; read-out: EC50 H1703

SMILES: COc1cc(/C=C/C(=O)N2CCC=C(C#CC3CC3)C2=O)cc(OC)c1OC [compound 5, (E)-3-(cyclopropylethynyl)-1-(3-(3,4,5-trimethoxyphenyl)prop-2-enoyl)-5,6-dihydropyridin-2(1H)-one]
- EC50 (HeLa; [7]): 1.3 µM
- EC50 (H1703; [8]): 0.7 µM
- elevation of protein glutathionylation (in words) (HeLa cells [1]): large and rapid elevations in protein glutathionylation

SMILES: COc1cc(/C=C/C(=O)N2CCCCC2=O)cc(OC)c1OC [compound 2, 1-[(2E)-3-(3,4,5-trimethoxyphenyl)prop-2-enoyl]piperidin-2-one]
- EC50 (HeLa; [7]): > 20 µM
- EC50 (HeLa; [9]): > 20 µM
- EC50 (H1703; [8]): > 20 µM
- EC50 (H1703; [10]): > 20 µM
- elevation of ROS levels (in words) [2]: neither elevated ROS levels

SMILES: COc1cc(/C=C/C(=O)N2CCC=C(C#CCN(C)C)C2=O)cc(OC)c1OC [(E)-3-(3-(dimethylamino)prop-1-ynyl)-1-(3-(3,4,5-trimethoxyphenyl)prop-2-enoyl)-5,6-dihydropyridin-2(1H)-one]
- stability at room temperature [3]: decomposes slowly at room temperature

SMILES: COc1cc2c(c(OC)c1OC)CCC(C(=O)N1CCC=CC1=O)=C2 [compound 29, 1-(5,6,7-trimethoxy-3,4-dihydronaphthalene-2-carbonyl)-5,6-dihydropyridin-2(1H)-one]
- viability / cellular toxicity (in words) [4]: diminished cell death relative to PL
- EC50 (HeLa; [9]): > 20 µM
- EC50 (H1703; [10]): 14 µM
- elevation of protein glutathionylation (in words) (HeLa cells [1]): minimal elevation
- elevation of ROS levels (in words) [2]: robust enhancement of ROS levels
- decrease in total cellular glutathione [5]: ca. 60%

SMILES: O=C1C=CCCN1S(=O)(=O)/C=C/c1ccccc1 [compound 52, 1-{[(E)-2-phenylvinyl]sulfonyl}-5,6-dihydropyridin-2(1H)-one]
- EC50 (HeLa; [9]): 4.1 µM
- EC50 (H1703; [10]): 2.7 µM
- selective toxicity toward transformed BJ-ELR over BJ fibroblasts (in words) (BJ vs. BJ-ELR): selectivity comparable to PL

SMILES: S=C=NCCc1ccccc1 [Phenethylisothiocyanate, reference compound]
- selective toxicity toward transformed BJ-ELR over BJ fibroblasts (in words) (BJ vs. BJ-ELR): showed selectivity in this assay

SMILES: COc1cc(/C=C/C(=O)N2CCC=CC2=O)cc(OC)c1OC [compound 1, piperlongumine, reference compound]
- EC50 (HeLa; Homo sapiens, HeLa, 48 h, read-out: EC50 HeLa): 7.1 µM
- EC50 (H1703; Homo sapiens, NCI-H1703, 48 h, read-out: EC50 H1703): 2.8 µM
- elevation of protein glutathionylation (in words) (HeLa cells [1]): large and rapid elevations in protein glutathionylation
- reversal of protein glutathionylation by 0.1 M dithiothreitol (HeLa cells [1]; treatment with 0.1 M dithiothreitol): could not be reversed
- decrease in total glutathione (in words) (HeLa cells [6]): most effective
- decrease in total cellular glutathione [5]: ca. 60%

SMILES: COC(=O)CSC1CCN(C(=O)/C=C/c2cc(OC)c(OC)c(OC)c2)C(=O)C1 (stereo not drawn) [compound 25]
- viability / cellular toxicity (in words) [4]: substantially less potent than PL at inducing cancer cell death
- EC50 (HeLa; read-out: EC50 HeLa; Table 2; cellular ATP levels, 48 h): > 20 µM
- EC50 (H1703; read-out: EC50 H1703; Table 2; cellular ATP levels, 48 h): 7.9 µM
- elevation of ROS levels (in words) [2]: substantially less potent than PL

SMILES: COc1cc(/C=C/C(=O)N2C(=O)C=CCC2C2CCCCC2)cc(OC)c1OC (stereo not drawn) [compound 11]
- EC50 (HeLa; Homo sapiens, HeLa; Table 2; cellular ATP levels, 48 h; read-out: EC50 HeLa): 7 µM
- EC50 (H1703; Homo sapiens, NCI-H1703; Table 2; cellular ATP levels, 48 h; read-out: EC50 H1703): 6 µM

SMILES: O=C1C=CCCN1S(=O)(=O)/C=C/c1ccccc1 [compound 16]
- EC50 (HeLa; [7]): 4.1 µM
- EC50 (H1703; [8]): 2.7 µM
